According to PubChem BioAssay AID2060511 (Molecular Pharmacology Branch, DTP, NCI, 2025):

System: 422866-222-R5-J1-PDC spheroids with HUVEC/MSC, viability
Assay: Anticancer human tumor 422866-222-R5-J1-PDC patient-derived pancreatic adenocarcinoma cell line growth inhibition [GQUAD]
Details: for IC50: curve of first compound; for viability, T/C: stronger effect = lower value
Procedure, shortened: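 Multi-cell-type spheroids of tumor cells with HUVEC and mesenchymal stem cells, treated with drug combinations. Concentrations descend in half-log steps from near clinical Cmax, or from 10 microM where Cmax is unknown; viability read-out.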

[1] = second compound 0.0316 µM, first compound 0.0316 µM
[2] = second compound 0.0316 µM, first compound 0.1 µM
[3] = second compound 0.0316 µM, first compound 0.316 µM
[4] = second compound 0.0316 µM, first compound 1 µM
[5] = second compound 0.0316 µM, first compound 3.16 µM
[6] = second compound 0.0316 µM, first compound 10 µM
[7] = second compound 0.1 µM, first compound 0.0316 µM
[8] = second compound 0.1 µM, first compound 0.1 µM
[9] = second compound 0.1 µM, first compound 0.316 µM
[10] = second compound 0.1 µM, first compound 1 µM
[11] = second compound 0.1 µM, first compound 3.16 µM
[12] = second compound 0.1 µM, first compound 10 µM
[13] = second compound 0.316 µM, first compound 0.0316 µM
[14] = second compound 0.316 µM, first compound 0.1 µM
[15] = second compound 0.316 µM, first compound 0.316 µM
[16] = second compound 0.316 µM, first compound 1 µM
[17] = second compound 0.316 µM, first compound 3.16 µM
[18] = second compound 0.316 µM, first compound 10 µM
[19] = second compound 1 µM, first compound 0.0316 µM
[20] = second compound 1 µM, first compound 0.1 µM
[21] = second compound 1 µM, first compound 0.316 µM
[22] = second compound 1 µM, first compound 1 µM
[23] = second compound 1 µM, first compound 3.16 µM
[24] = second compound 1 µM, first compound 10 µM
[25] = second compound 3.16 µM, first compound 0.0316 µM
[26] = second compound 3.16 µM, first compound 0.1 µM
[27] = second compound 3.16 µM, first compound 0.316 µM
[28] = second compound 3.16 µM, first compound 1 µM
[29] = second compound 3.16 µM, first compound 3.16 µM
[30] = second compound 3.16 µM, first compound 10 µM
[31] = second compound 10 µM, first compound 0.0316 µM
[32] = second compound 10 µM, first compound 0.1 µM
[33] = second compound 10 µM, first compound 0.316 µM
[34] = second compound 10 µM, first compound 1 µM
[35] = second compound 10 µM, first compound 3.16 µM
[36] = second compound 10 µM, first compound 10 µM
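Note: spheroids exposed to compounds for seven days before reading.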
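Throughout, for viability, T/C: percent viability relative to DMSO vehicle control taken as 100%.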

Structure (SMILES): COc1cccc2c1C(=O)c1c(O)c3c(c(O)c1C2=O)CC(O)(C(=O)CO)CC3OC1CC(N)C(O)C(C)O1 (stereo unspecified) + Cc1cnc(CNC(=O)c2c(=O)c3ccc(N4CCCN(C)CC4)nc3n3c2sc2ccccc23)cn1
- IC50 (second compound 0.0316 µM): 0.983 µM
- IC50 (second compound 0.1 µM): 0.961 µM
- IC50 (second compound 0.316 µM): 1.18 µM
- IC50 (second compound 1 µM): 1.29 µM
- IC50 (second compound 3.16 µM): 1.4 µM
- IC50 (second compound 10 µM): 1.11 µM
- viability, T/C [1]: 100%
- viability, T/C [2]: 65.7%
- viability, T/C [3]: 78.6%
- viability, T/C [4]: 46.5%
- viability, T/C [5]: 33.9%
- viability, T/C [6]: 25.7%
- viability, T/C [7]: 89.3%
- viability, T/C [8]: 69.5%
- viability, T/C [9]: 78.9%
- viability, T/C [10]: 48.7%
- viability, T/C [11]: 34.8%
- viability, T/C [12]: 30.1%
- viability, T/C [13]: 83.3%
- viability, T/C [14]: 81.8%
- viability, T/C [15]: 73%
- viability, T/C [16]: 51.5%
- viability, T/C [17]: 37.3%
- viability, T/C [18]: 30%
- viability, T/C [19]: 73.3%
- viability, T/C [20]: 86.8%
- viability, T/C [21]: 80.1%
- viability, T/C [22]: 54.8%
- viability, T/C [23]: 33.7%
- viability, T/C [24]: 29.5%
- viability, T/C [25]: 95.4%
- viability, T/C [26]: 80.4%
- viability, T/C [27]: 79.2%
- viability, T/C [28]: 54.7%
- viability, T/C [29]: 36.5%
- viability, T/C [30]: 34.2%
- viability, T/C [31]: 74.2%
- viability, T/C [32]: 82.6%
- viability, T/C [33]: 75%
- viability, T/C [34]: 50.4%
- viability, T/C [35]: 35.6%
- viability, T/C [36]: 26.7%

Structure (SMILES): Nc1ccn(C2OC(CO)C(O)C2(F)F)c(=O)n1 (stereo unspecified) + Cc1cnc(CNC(=O)c2c(=O)c3ccc(N4CCCN(C)CC4)nc3n3c2sc2ccccc23)cn1
- IC50 (second compound 0.0316 µM): 1.19 µM
- IC50 (second compound 0.1 µM): > 10 µM
- IC50 (second compound 0.316 µM): > 10 µM
- IC50 (second compound 1 µM): > 10 µM
- IC50 (second compound 3.16 µM): > 10 µM
- IC50 (second compound 10 µM): > 10 µM
- viability, T/C [1]: 86.7%
- viability, T/C [2]: 67.8%
- viability, T/C [3]: 69.1%
- viability, T/C [4]: 47.2%
- viability, T/C [5]: 41.9%
- viability, T/C [6]: 43%
- viability, T/C [7]: 85.6%
- viability, T/C [8]: 87%
- viability, T/C [9]: 70.7%
- viability, T/C [10]: 48.6%
- viability, T/C [11]: 50.8%
- viability, T/C [12]: 54.8%
- viability, T/C [13]: 96.5%
- viability, T/C [14]: 81%
- viability, T/C [15]: 70.3%
- viability, T/C [16]: 62.3%
- viability, T/C [17]: 54.1%
- viability, T/C [18]: 58.1%
- viability, T/C [19]: 78.2%
- viability, T/C [20]: 72.7%
- viability, T/C [21]: 74.3%
- viability, T/C [22]: 69.2%
- viability, T/C [23]: 68.3%
- viability, T/C [24]: 63.4%
- viability, T/C [25]: 70.5%
- viability, T/C [26]: 88.6%
- viability, T/C [27]: 72.4%
- viability, T/C [28]: 79.8%
- viability, T/C [29]: 71.2%
- viability, T/C [30]: 58.4%
- viability, T/C [31]: 84.9%
- viability, T/C [32]: 78.4%
- viability, T/C [33]: 89.5%
- viability, T/C [34]: 79.2%
- viability, T/C [35]: 67.2%
- viability, T/C [36]: 63.4%

Structure (SMILES): O=c1[nH]cc(F)c(=O)[nH]1 + Cc1cnc(CNC(=O)c2c(=O)c3ccc(N4CCCN(C)CC4)nc3n3c2sc2ccccc23)cn1
- IC50 (second compound 0.0316 µM): > 10 µM
- IC50 (second compound 0.1 µM): > 10 µM
- IC50 (second compound 0.316 µM): > 10 µM
- IC50 (second compound 1 µM): > 10 µM
- IC50 (second compound 3.16 µM): > 10 µM
- IC50 (second compound 10 µM): > 10 µM
- viability, T/C [1]: 90%
- viability, T/C [2]: 93.1%
- viability, T/C [3]: 88.2%
- viability, T/C [4]: 88.8%
- viability, T/C [5]: 78%
- viability, T/C [6]: 78.7%
- viability, T/C [7]: 94.5%
- viability, T/C [8]: 79.6%
- viability, T/C [9]: 89.4%
- viability, T/C [10]: 95.5%
- viability, T/C [11]: 85.8%
- viability, T/C [12]: 87.5%
- viability, T/C [13]: 85.6%
- viability, T/C [14]: 69.4%
- viability, T/C [15]: 96.1%
- viability, T/C [16]: 83.3%
- viability, T/C [17]: 89.7%
- viability, T/C [18]: 92.2%
- viability, T/C [19]: 88.6%
- viability, T/C [20]: 85.8%
- viability, T/C [21]: 85.2%
- viability, T/C [22]: 104%
- viability, T/C [23]: 105%
- viability, T/C [24]: 104%
- viability, T/C [25]: 83.1%
- viability, T/C [26]: 85.2%
- viability, T/C [27]: 93.5%
- viability, T/C [28]: 83.3%
- viability, T/C [29]: 99.8%
- viability, T/C [30]: 82.8%
- viability, T/C [31]: 81.8%
- viability, T/C [32]: 78.4%
- viability, T/C [33]: 85.7%
- viability, T/C [34]: 80.6%
- viability, T/C [35]: 87.5%
- viability, T/C [36]: 76.4%
